Reference: ChEMBL document CHEMBL6127079, “Design and synthesis of spiro[pyrrolidine-3,3'-quinoline]-2,2'-dione derivatives as novel antifungal agents targeting chitin synthase” (Eur J Med Chem, 2024)
≈ marks a conversion by molar mass, not a printed value.

Experiments:
Cryptococcus neoformans = experiment: Antifungal activity against Cryptococcus neoformans ATCC 32719 assessed as inhibition of growth incubated for 24 hrs by two-fold serial dilution method; type: functional
Candida albicans = experiment: Antifungal activity against Candida albicans ATCC 76615 assessed as inhibition of growth incubated for 24 hrs by two-fold serial dilution method; type: functional
[1] = Inhibition of chitin synthase extracted from Candida tropicalis ATCC 750 using UDP-GlcNAc as substrate assessed as inhibition rate by TMB based microplate analyzer relative to control
Aspergillus flavus = experiment: Antifungal activity against Aspergillus flavus ATCC 16870 assessed as inhibition of growth incubated for 24 hrs by two-fold serial dilution method; type: functional
Candida tropicalis = experiment: Inhibition of chitin synthase extracted from Candida tropicalis ATCC 750 using UDP-GlcNAc as substrate assessed as inhibition rate at 300 ug/ml by TMB based microplate analyzer relative to control; conditions: dose 300.0 µg/ml
Aspergillus fumigatus = experiment: Antifungal activity against Aspergillus fumigatus GIMCC 3.19 assessed as inhibition of growth incubated for 24 hrs by two-fold serial dilution method; type: functional

Cc1ccc(NC(=O)C2CCN(CC(=O)Nc3ccc4c(c3)NC(=O)C3(CCNC3=O)C4)CC2)cc1 (racemic)
MIC (Cryptococcus neoformans): 32 µg/mL (≈ 65.4 µM) | MIC (Candida albicans): 32 µg/mL (≈ 65.4 µM) | IC50 [1]: 286 µM | MIC (Aspergillus flavus): 64 µg/mL (≈ 131 µM) | inhibition (Candida tropicalis): 45.1% | MIC (Aspergillus fumigatus): 128 µg/mL (≈ 261 µM)

CCCNC(=O)C1CCN(CC(=O)Nc2ccc3c(c2)NC(=O)C2(CCNC2=O)C3)CC1 (racemic)
MIC (Cryptococcus neoformans): 512 µg/mL (≈ 1160 µM) | MIC (Candida albicans): 128 µg/mL (≈ 290 µM) | MIC (Aspergillus flavus): 128 µg/mL (≈ 290 µM) | inhibition (Candida tropicalis): 22.5% | MIC (Aspergillus fumigatus): 256 µg/mL (≈ 580 µM)

O=C(CN1CCC(C(=O)Nc2nccs2)CC1)Nc1ccc2c(c1)NC(=O)C1(CCNC1=O)C2 (racemic)
MIC (Cryptococcus neoformans): 512 µg/mL (≈ 1060 µM) | MIC (Candida albicans): 8 µg/mL (≈ 16.6 µM) | IC50 [1]: 157 µM | MIC (Aspergillus flavus): 32 µg/mL (≈ 66.3 µM) | inhibition (Candida tropicalis): 73.9% | MIC (Aspergillus fumigatus): 256 µg/mL (≈ 530 µM)

COc1ccc(NC(=O)/C=C/C(=O)Nc2ccc3c(c2)NC(=O)C2(CCNC2=O)C3)cc1 (racemic)
MIC (Cryptococcus neoformans): 32 µg/mL (≈ 73.7 µM) | MIC (Candida albicans): 64 µg/mL (≈ 147 µM) | MIC (Aspergillus flavus): 32 µg/mL (≈ 73.7 µM) | inhibition (Candida tropicalis): 49.3% | MIC (Aspergillus fumigatus): 64 µg/mL (≈ 147 µM)

O=C(CN1CCC(C(=O)Nc2ccc(Cl)cc2)CC1)Nc1ccc2c(c1)NC(=O)C1(CCNC1=O)C2 (racemic)
MIC (Cryptococcus neoformans): 32 µg/mL (≈ 62.7 µM) | MIC (Candida albicans): 64 µg/mL (≈ 125 µM) | IC50 [1]: 166 µM | MIC (Aspergillus flavus): 16 µg/mL (≈ 31.4 µM) | inhibition (Candida tropicalis): 41.3% | MIC (Aspergillus fumigatus): 16 µg/mL (≈ 31.4 µM)

O=C(/C=C/C(=O)Nc1ccc2c(c1)NC(=O)C1(CCNC1=O)C2)Nc1ccc(Cl)cc1 (racemic)
MIC (Cryptococcus neoformans): 64 µg/mL (≈ 146 µM) | MIC (Candida albicans): 32 µg/mL (≈ 72.9 µM) | IC50 [1]: 496 µM | MIC (Aspergillus flavus): 32 µg/mL (≈ 72.9 µM) | inhibition (Candida tropicalis): 56.3% | MIC (Aspergillus fumigatus): 32 µg/mL (≈ 72.9 µM)

CC(C)NC(=O)/C=C/C(=O)Nc1ccc2c(c1)NC(=O)C1(CCNC1=O)C2 (racemic)
MIC (Cryptococcus neoformans): 128 µg/mL (≈ 346 µM) | MIC (Candida albicans): 128 µg/mL (≈ 346 µM) | MIC (Aspergillus flavus): 256 µg/mL (≈ 691 µM) | inhibition (Candida tropicalis): 34.6% | MIC (Aspergillus fumigatus): 64 µg/mL (≈ 173 µM)

Cc1ccc(NC(=O)C2CCN(CC(=O)Nc3ccc4c(c3)NC(=O)C3(CCNC3=O)C4)CC2)cc1C (racemic)
MIC (Cryptococcus neoformans): 64 µg/mL (≈ 127 µM) | MIC (Candida albicans): 32 µg/mL (≈ 63.5 µM) | MIC (Aspergillus flavus): 32 µg/mL (≈ 63.5 µM) | inhibition (Candida tropicalis): 42.3% | MIC (Aspergillus fumigatus): 64 µg/mL (≈ 127 µM)

O=C(CN1CCC(C(=O)Nc2ccccc2)CC1)Nc1ccc2c(c1)NC(=O)C1(CCNC1=O)C2 (racemic)
MIC (Cryptococcus neoformans): 64 µg/mL (≈ 135 µM) | MIC (Candida albicans): 64 µg/mL (≈ 135 µM) | MIC (Aspergillus flavus): 32 µg/mL (≈ 67.3 µM) | inhibition (Candida tropicalis): 35.8% | MIC (Aspergillus fumigatus): 128 µg/mL (≈ 269 µM)

O=C(/C=C/C(=O)Nc1ccc2c(c1)NC(=O)C1(CCNC1=O)C2)Nc1ccc(F)c(Cl)c1 (racemic)
MIC (Cryptococcus neoformans): 32 µg/mL (≈ 70 µM) | MIC (Candida albicans): 32 µg/mL (≈ 70 µM) | MIC (Aspergillus flavus): 64 µg/mL (≈ 140 µM) | inhibition (Candida tropicalis): 48.7% | MIC (Aspergillus fumigatus): 128 µg/mL (≈ 280 µM)

CCCNC(=O)/C=C/C(=O)Nc1ccc2c(c1)NC(=O)C1(CCNC1=O)C2 (racemic)
MIC (Cryptococcus neoformans): 128 µg/mL (≈ 346 µM) | MIC (Candida albicans): 128 µg/mL (≈ 346 µM) | MIC (Aspergillus flavus): 128 µg/mL (≈ 346 µM) | inhibition (Candida tropicalis): 36.9% | MIC (Aspergillus fumigatus): 64 µg/mL (≈ 173 µM)

CCCN(CCC)C(=O)/C=C/C(=O)Nc1ccc2c(c1)NC(=O)C1(CCNC1=O)C2 (racemic)
MIC (Cryptococcus neoformans): 128 µg/mL (≈ 310 µM) | MIC (Candida albicans): 128 µg/mL (≈ 310 µM) | MIC (Aspergillus flavus): 128 µg/mL (≈ 310 µM) | inhibition (Candida tropicalis): 26.3% | MIC (Aspergillus fumigatus): 256 µg/mL (≈ 621 µM)

COc1ccc(NC(=O)C2CCN(CC(=O)Nc3ccc4c(c3)NC(=O)C3(CCNC3=O)C4)CC2)cc1 (racemic)
MIC (Cryptococcus neoformans): 64 µg/mL (≈ 127 µM) | MIC (Candida albicans): 128 µg/mL (≈ 253 µM) | MIC (Aspergillus flavus): 32 µg/mL (≈ 63.3 µM) | inhibition (Candida tropicalis): 75.9% | MIC (Aspergillus fumigatus): 64 µg/mL (≈ 127 µM)

O=C(/C=C/C(=O)Nc1ccc2c(c1)NC(=O)C1(CCNC1=O)C2)Nc1ccc(F)cc1 (racemic)
MIC (Cryptococcus neoformans): 32 µg/mL (≈ 75.8 µM) | MIC (Candida albicans): 128 µg/mL (≈ 303 µM) | MIC (Aspergillus flavus): 32 µg/mL (≈ 75.8 µM) | inhibition (Candida tropicalis): 46.8% | MIC (Aspergillus fumigatus): 64 µg/mL (≈ 152 µM)
